Test results taken from PubChem BioAssay (NCI).
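How tested: cells in 96-well plates exposed to compound for 48 hours at five concentrations. Here, GI50 denotes the concentration required for 50% inhibition of growth. TGI denotes the concentration required for complete inhibition of growth.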

What was measured:
Assay in all cases: NCI-60 cell line screen, 48 h
KM12 colon = system: KM12 colon
UO-31 renal = system: UO-31 renal
SR leukemia = system: SR leukemia
SK-MEL-2 melanoma = system: SK-MEL-2 melanoma
MDA-MB-231 breast = system: MDA-MB-231 breast
UACC-257 melanoma = system: UACC-257 melanoma
MALME-3M melanoma = system: MALME-3M melanoma
HT29 colon = system: HT29 colon
NCI-H23 lung = system: NCI-H23 lung
OVCAR-3 ovarian = system: OVCAR-3 ovarian
UACC-62 melanoma = system: UACC-62 melanoma
OVCAR-4 ovarian = system: OVCAR-4 ovarian
RXF 393 renal = system: RXF 393 renal
HCT-15 colon = system: HCT-15 colon
HOP-62 NSCLC = system: HOP-62 NSCLC
NCI-H226 lung = system: NCI-H226 lung
K-562 leukemia = system: K-562 leukemia
COLO 205 colon = system: COLO 205 colon
SF-295 CNS = system: SF-295 CNS
EKVX NSCLC = system: EKVX NSCLC
MCF7 breast = system: MCF7 breast
T-47D breast = system: T-47D breast
SNB-75 CNS = system: SNB-75 CNS
HCT-116 colon = system: HCT-116 colon
HL-60(TB) leukemia = system: HL-60(TB) leukemia
SK-OV-3 ovarian = system: SK-OV-3 ovarian
SNB-19 CNS = system: SNB-19 CNS
SW-620 colon = system: SW-620 colon
U251 CNS = system: U251 CNS
CCRF-CEM leukemia = system: CCRF-CEM leukemia
ACHN renal = system: ACHN renal
PC-3 prostate = system: PC-3 prostate
BT-549 breast = system: BT-549 breast
SK-MEL-5 melanoma = system: SK-MEL-5 melanoma
SK-MEL-28 melanoma = system: SK-MEL-28 melanoma
NCI-H460 lung = system: NCI-H460 lung
TK-10 renal = system: TK-10 renal
MDA-MB-435 = system: MDA-MB-435
IGROV1 ovarian = system: IGROV1 ovarian
OVCAR-5 ovarian = system: OVCAR-5 ovarian
MOLT-4 leukemia = system: MOLT-4 leukemia
DU-145 prostate = system: DU-145 prostate
NCI/ADR-RES ovarian = system: NCI/ADR-RES ovarian
SN12C renal = system: SN12C renal
SF-268 CNS = system: SF-268 CNS
RPMI-8226 leukemia = system: RPMI-8226 leukemia
CAKI-1 renal = system: CAKI-1 renal
HCC-2998 colon = system: HCC-2998 colon
M14 melanoma = system: M14 melanoma
LOX IMVI melanoma = system: LOX IMVI melanoma
786-0 renal = system: 786-0 renal
A498 renal = system: A498 renal
OVCAR-8 ovarian = system: OVCAR-8 ovarian
NCI-H522 lung = system: NCI-H522 lung
SF-539 CNS = system: SF-539 CNS
HS 578T breast = system: HS 578T breast
A549 NSCLC = system: A549 NSCLC

CCC(CC)COC(=O)[C@H](C)N[P@](=O)(OC[C@H]1O[C@@](C#N)(c2ccc3c(N)ncnn23)[C@H](O)[C@@H]1O)Oc1ccccc1
GI50 (KM12 colon): 15.3 µM
TGI (KM12 colon): > 100 µM
GI50 (UO-31 renal): 41.3 µM
TGI (UO-31 renal): > 100 µM
GI50 (SR leukemia): 1 µM
TGI (SR leukemia): 32.4 µM
GI50 (SK-MEL-2 melanoma): 0.97 µM
TGI (SK-MEL-2 melanoma): 4.51 µM
GI50 (MDA-MB-231 breast): 5.46 µM
TGI (MDA-MB-231 breast): 81.3 µM
GI50 (UACC-257 melanoma): 2.73 µM
TGI (UACC-257 melanoma): 15.7 µM
GI50 (MALME-3M melanoma): 2.08 µM
TGI (MALME-3M melanoma): 6.91 µM
GI50 (HT29 colon): 6.08 µM
TGI (HT29 colon): > 100 µM
GI50 (NCI-H23 lung): 2.59 µM
TGI (NCI-H23 lung): 12.1 µM
GI50 (OVCAR-3 ovarian): 2.35 µM
TGI (OVCAR-3 ovarian): 18.5 µM
GI50 (UACC-62 melanoma): 2.56 µM
TGI (UACC-62 melanoma): 11 µM
GI50 (OVCAR-4 ovarian): 3.02 µM
TGI (OVCAR-4 ovarian): 66 µM
GI50 (RXF 393 renal): 2.8 µM
TGI (RXF 393 renal): 23.3 µM
GI50 (HCT-15 colon): 29.1 µM
TGI (HCT-15 colon): > 100 µM
GI50 (HOP-62 NSCLC): 6.34 µM
TGI (HOP-62 NSCLC): > 100 µM
GI50 (NCI-H226 lung): 7.61 µM
TGI (NCI-H226 lung): 49.1 µM
GI50 (K-562 leukemia): 0.597 µM
TGI (K-562 leukemia): > 100 µM
GI50 (COLO 205 colon): 2.46 µM
TGI (COLO 205 colon): 18.4 µM
GI50 (SF-295 CNS): 31 µM
TGI (SF-295 CNS): > 100 µM
GI50 (EKVX NSCLC): 19.1 µM
TGI (EKVX NSCLC): > 100 µM
GI50 (MCF7 breast): 3.45 µM
TGI (MCF7 breast): 27.3 µM
GI50 (T-47D breast): 1.82 µM
TGI (T-47D breast): > 100 µM
GI50 (SNB-75 CNS): 2.75 µM
TGI (SNB-75 CNS): 91.6 µM
GI50 (HCT-116 colon): 2.24 µM
TGI (HCT-116 colon): 30.2 µM
GI50 (HL-60(TB) leukemia): 0.701 µM
TGI (HL-60(TB) leukemia): 8.62 µM
GI50 (SK-OV-3 ovarian): 2.65 µM
TGI (SK-OV-3 ovarian): > 100 µM
GI50 (SNB-19 CNS): 15.7 µM
TGI (SNB-19 CNS): > 100 µM
GI50 (SW-620 colon): 1.92 µM
TGI (SW-620 colon): > 100 µM
GI50 (U251 CNS): 15.9 µM
TGI (U251 CNS): > 100 µM
GI50 (CCRF-CEM leukemia): 3.51 µM
TGI (CCRF-CEM leukemia): 51.6 µM
GI50 (ACHN renal): 18.3 µM
TGI (ACHN renal): > 100 µM
GI50 (PC-3 prostate): 3.58 µM
TGI (PC-3 prostate): 14.2 µM
GI50 (BT-549 breast): 9.62 µM
TGI (BT-549 breast): 50.7 µM
GI50 (SK-MEL-5 melanoma): 5.24 µM
TGI (SK-MEL-5 melanoma): 17.5 µM
GI50 (SK-MEL-28 melanoma): 2.83 µM
TGI (SK-MEL-28 melanoma): 11.8 µM
GI50 (NCI-H460 lung): 4.83 µM
TGI (NCI-H460 lung): > 100 µM
GI50 (TK-10 renal): 9.85 µM
TGI (TK-10 renal): > 100 µM
GI50 (MDA-MB-435): 4.53 µM
TGI (MDA-MB-435): 25.1 µM
GI50 (IGROV1 ovarian): 2.72 µM
TGI (IGROV1 ovarian): 95.2 µM
GI50 (OVCAR-5 ovarian): 40.2 µM
TGI (OVCAR-5 ovarian): > 100 µM
GI50 (MOLT-4 leukemia): 2.79 µM
TGI (MOLT-4 leukemia): 31.2 µM
GI50 (DU-145 prostate): 8.44 µM
TGI (DU-145 prostate): > 100 µM
GI50 (NCI/ADR-RES ovarian): > 100 µM
TGI (NCI/ADR-RES ovarian): > 100 µM
GI50 (SN12C renal): 7.73 µM
TGI (SN12C renal): > 100 µM
GI50 (SF-268 CNS): 4.29 µM
TGI (SF-268 CNS): > 100 µM
GI50 (RPMI-8226 leukemia): 1.02 µM
TGI (RPMI-8226 leukemia): 10.6 µM
GI50 (CAKI-1 renal): 4.19 µM
TGI (CAKI-1 renal): > 100 µM
GI50 (HCC-2998 colon): 5.39 µM
TGI (HCC-2998 colon): > 100 µM
GI50 (M14 melanoma): 1.95 µM
TGI (M14 melanoma): 12.2 µM
GI50 (LOX IMVI melanoma): 3.58 µM
TGI (LOX IMVI melanoma): 22.1 µM
GI50 (786-0 renal): 6.08 µM
TGI (786-0 renal): > 100 µM
GI50 (A498 renal): 0.359 µM
TGI (A498 renal): 8.57 µM
GI50 (OVCAR-8 ovarian): 5.91 µM
TGI (OVCAR-8 ovarian): > 100 µM
GI50 (NCI-H522 lung): 1.29 µM
TGI (NCI-H522 lung): 27.3 µM
GI50 (SF-539 CNS): 10.8 µM
TGI (SF-539 CNS): 37.3 µM
GI50 (HS 578T breast): 13.2 µM
TGI (HS 578T breast): > 100 µM
GI50 (A549 NSCLC): 47.7 µM
TGI (A549 NSCLC): > 100 µM
